Assay results reported in patent US20240116984A1, “MODIFIED PEPTIDES FOR THE INHIBITION OF ABNORMAL TAU ACCUMULATION” (University of Notre Dame du Lac, priority 2021, published 2024).
“Also recorded” adds a separate entry of the source. Starred links: 1 amine or outer side, 2 acyl side, 3 side chain; linkers in the order of their positions; H or OH if unused. Non-standard residues stand in square brackets, D forms with d. Residues, ends and D or L forms follow the SMILES beside them. Primed or numbered codes have the meaning given here. *: point of attachment. aIle′ = Ile with backbone N-amino (N-aminated amide nitrogen), CC[C@H](C)[C@@H](C(=O)[*:2])N(N)[*:1]; aVal = Val with backbone N-amino (N-aminated amide nitrogen), CC(C)[C@@H](C(=O)[*:2])N(N)[*:1]; X2 = NN([C@@H](Cc1ccc(O)cc1)C(=O)[*:2])[*:1]; X1 = CC[C@H](C)[C@@H](C(=O)[*:2])N(N)[*:1]; N(NH2)LysNH2 = NCCCC[C@@H](C(N)=O)N(N)*; X3 = CC(C)[C@@H](C(=O)[*:2])N(N)[*:1]; N(NH2)Lys = NCCCC[C@H](NN)C(=O)O

What was measured:
[1] = system: tauP301L fibrils; assay: Transmission electron microscopy of heparin-induced tauP301L fibrils; format: biochemical, human; details: two-fold molar excess of inhibitor, 96 h
Method: For analyzing fibrils by transmission electron microscopy (TEM), aggregation was carried out under conditions similar to the assay above but with ThT excluded and a final reaction volume of 100 μL Samples were incubated in a microcentrifuge tube for 4 days at 37° C. with a mixing speed of 100 rpm. A 10 μL aliquot of the sample was then applied to 400-meshed formvar/carbon-coated copper grids and negative stained with 2% uranyl-acetate. Micrographs were taken on a JEOL 2011 TEM at 200 kV.

[2] = system: Recombinant tauP301L (0N4R); assay: Thioflavin T (ThT) fluorescence aggregation assay of recombinant tauP301L; format: biochemical, human; details: Tau 10 μM : inhibitor 20 μM (2-fold molar excess), heparin, 48 h
Method: Recombinant tauP301L (10 μM final concentration) and NAP inhibitors 20 μM final concentration) were mixed in an aggregation buffer (100 mM sodium acetate, 10 μM ThT, 10 μM heparin, 2 mM DTT, 0.5% DMSO, pH 7.4) in a 96-well clear bottom black plate with a final reaction volume of 200 μL. The plate was then sealed with a clear sealing film and allowed to incubate at 37° C. with continuous shaking in a Biotek Synergy H1 microplate reader. An automated method was used to carry out ThT fluorescence measurements at an excitation wavelength of 444 nm and an emission wavelength of 485 nm at an interval of every 5 minutes for 48 hours. Experiments were carried out in technical replicates on at least two different days. Every experiment included control wells that lacked tau301L, heparin, or NAPs. The average of tau-only (no heparin) wells was used to subtract background fluorescence and the average of the first and last 10 data points of tau+heparin wells, after blank subtraction, was used to normalize the data. All data plots were generated with SigmaPlot.

[3] = system: HEK293 cells stably expressing tau-RD (P301L/V337M)-YFP; format: cell-based, human; details: 36 h
Method: TauP301L was diluted to a final concentration of 10 μM in an aggregation buffer containing 100 mM sodium acetate, 10 μM heparin, 2 mM DTT, pH 7.4. The protein was incubated in a microcentrifuge tube for 4 days at 37° C. with a shaking speed of 100 rpm. Control vials included those wherein (1) buffer was added in place of tauP301L, and (2) buffer was added in place of heparin.
(§1) HEK293 cells stably expressing tau-RD (LM)-YFP were cultured in DMEM media containing 10% FBS, 1% penicillin/streptomycin, and 1% Glutamax™ (Gibco) in a 75 cm^2 cell culture flask under 5% CO2 at 37° C. For each experiment, cells were plated at a density of 15000 cells/well into 96 well tissue culture plates.
TauP301L fibrils were prepared as described above (see section on fibril formation) and sonicated for 3 minutes prior to use in this assay. In a reaction volume of 40 μL, 8 μL of fibrils was diluted with 31 μL of low-serum Opti-MEM® (Gibco) media and then mixed with 1 μL of NAPs (DMSO concentration was constant across various concentration of inhibitors). […] IC50 values were calculated by fitting the data set using sigmoidal logistic 4 parameter equation. Error bars represent standard deviation from technical replicates. % Tau infection was calculated using following formula: […]

[4] = Human serum stability assay; format: in vitro ADME; details: 25% human serum, 24 h
Method: The stability of NAPs in 25% human serum (Millipore Sigma) was assessed by HPLC. The reaction was started by adding NAPs at a final concentration of 500 μM in pre-warmed serum. The mixture was incubated at 37° C. for 24 h. A 100 μL aliquot of the reaction mixture was taken out at 0 h, 1 h, 4 h, and 24 h and was mixed with an equal volume of 20% TCA and incubated at 4° C. for 15 minutes to precipitate serum proteins. After centrifugation at 12000 rpm for 10 min, the supernatant was collected and mixed with an internal standard (1 mg/mL of Cbz-Tyr-OH dissolved in MeCN) and stored at −20° C. Samples were then analyzed by LC-MS and the percentage of peptide remaining was calculated by integrating peaks.

[5] = system: human neuroblastoma SH-SY5Y cells; assay: MTT cell viability assay on SH-SY5Y cells; format: cell-based; details: 10 μM and 50 μM, 48 h
Method: MTT cell viability assays were carried out on both HEK293 cells stably expressing tau-RD (LM)-YFP and SH-SY5Y cells. Cells were cultured in DMEM/F12 complete media containing 10% FBS, 1% penicillin/streptomycin and 1% Glutamax™ (Gibco) in a 75 cm^2 cell culture flask under 5% CO2 at 37° C. Cell viability was determined using MTT reduction assay. Briefly, 15,000 cells/well were plated in a 96 well tissue culture plate and were allowed to incubate overnight in a CO2 incubator. The media was aspirated, and the NAP inhibitor prepared in complete media was added at a given final concentration. The plate was then allowed to incubate for additional 48 h in a CO2 incubator and the media was aspirated again and replaced with 0.5 mg/mL of MTT prepared in complete media and incubated for additional 3 h. Media was then replaced with DMSO to dissolve formazan crystals and the absorbance was measured at 570 nm using Synergy H1 micro plate reader. Each data set were collected from technical replicates on at least two different days.

[6] = system: HEK293 cells stably expressing tau-RD (P301L/V337M)-YFP; assay: Cellular seeding assay, seeding by monomeric tau co-incubated with NAPs; format: cell-based, human; details: 0.19 μM Tau, 4 days co-incubation, cells 48 h
Method: as §1
Monomeric tauP301L was co-incubated with NAPs for 4 days in an aggregation buffer at 37° C. (see above section). Following incubation, the reaction mixture was diluted in low serum Opti-MEM® media (Gibco), mixed with lipofectamine 2000 in 20:1 ratio (complex:lipofectamine) and allowed to incubate for an additional 20 minutes at RT. A mixture of 0.19 μM of Tau+1.9 μM or 0.009 μM of inhibitors (final concentrations) was added to the cells. Cells were incubated for additional 48 h before taking measurements on a BioTek Cytation 5 cell imager and microplate reader. 10×10 pictures/well were taken at 20× magnification under FITC channel and the punctate counting was carried out using built-in software. Each data set was collected from technical replicates on at least two different days. Every experiment included control wells (no tau, no heparin, and no NAP). All data plots were generated with SigmaPlot. Error bars shown are standard deviation from technical replicates.

[7] = target: T1, synthetic, full-length Aβ42 (Homo sapiens, UniProt P05067); assay: ThT fluorescence assay with Aβ42; format: biochemical; details: Aβ42 40 μM
T1 construct: synthetic, full-length Aβ42 (40 μM)
Method: A peptidomimetic approach to tau inhibition offers prospects for achieving selectivity over other amyloids rich in β structure. As a preliminary test, the best-performing tau mimic, compound 12 (EG09; SEQ ID NO: 18), was selected and its effect on Aβ42 aggregation in vitro was determined (FIG. 11).

T1 sequence (P05067 672-713 limits assumed): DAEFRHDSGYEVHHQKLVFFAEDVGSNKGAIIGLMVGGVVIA

Molecule | fibril morphology / inhibition of Tau fibril formation by TEM [1] | effect on end-point ThT fluorescence of tauP301L (inhibition of Tau aggregation) [2] | other results
Ac-aVal-Gln-aIle-Val-aTyr-Lys-NH2 [Compound 14] | did not inhibit Tau fibril formation | – | –
Ac-aVal-Gln-aIle-Val-Tyr-Lys-NH2 (Ac-[aVal]Q[aIle′]VYK-NH2; SMILES CC[C@H](C)[C@@H](C(=O)N[C@H](C(=O)N[C@@H](Cc1ccc(O)cc1)C(=O)N[C@@H](CCCCN)C(N)=O)C(C)C)N(N)C(=O)[C@H](CCC(N)=O)NC(=O)[C@H](C(C)C)N(N)C(C)=O) [Compound 10] | did not inhibit Tau fibril formation | – | –
Ac-aVal-Gln-Ile-Val-Tyr-Lys-NH2 (Ac-[aVal]QIVYK-NH2; SMILES CC[C@H](C)[C@H](NC(=O)[C@H](CCC(N)=O)NC(=O)[C@H](C(C)C)N(N)C(C)=O)C(=O)N[C@H](C(=O)N[C@@H](Cc1ccc(O)cc1)C(=O)N[C@@H](CCCCN)C(N)=O)C(C)C) [Compound 5] | short, immature rod-like fibrils | significantly reduce | –
CC[C@H](C)[C@H](NC(=O)[C@H](CCC(N)=O)NC(=O)[C@@H](NC(C)=O)C(C)C)C(=O)N(N)[C@H](C(=O)N[C@@H](Cc1ccc(O)cc1)C(=O)N(N)[C@@H](CCCCN)C(N)=O)C(C)C [Compound 13, Ac-Val-Gln-Ile-aVal-Tyr-aLys-NH2] (Ac-VQI[X3]Y-{N(NH2)LysNH2}) | – | – | IC50 [3]: ~5 µM; stability in human serum [4]: remarkably stable; cytotoxic effect, MTT assay [5]: no appreciable toxicity; also recorded: non-cytotoxic
CC[C@H](C)[C@@H](C(=O)N[C@H](C(=O)N(N)[C@@H](Cc1ccc(O)cc1)C(=O)N[C@@H](CCCCN)C(N)=O)C(C)C)N(N)C(=O)[C@H](CCC(N)=O)NC(=O)[C@@H](NC(C)=O)C(C)C [Compound 12, Ac-Val-Gln-aIle-Val-aTyr-Lys-NH2] (Ac-VQ[X1]V[X2]K-NH2) | non-fibrillary amorphous aggregates; also recorded: non-fibrillary, amorphous aggregates | significantly reduce | seeding capacity of monomeric tauP301L pre-treated with inhibitor ([6]; 0.009 μM inhibitor): less pronounced; seeding capacity of monomeric tauP301L pre-treated with inhibitor ([6]; 1.9 μM inhibitor): significantly reduced seeding capacity; IC50 [3]: ~5 µM; stability in human serum [4]: remarkably stable; also recorded: serum stable; cytotoxic effect, MTT assay [5]: no appreciable toxicity; also recorded: non-cytotoxic; also recorded: non-toxic to neuronal cells; effect on lag-time of Aβ42 aggregation ([7]; any of the concentrations tested): no effect on lag-time; inhibitory effect on Aβ42 aggregation ([7]; compound up to 4-fold molar excess (160 μM), ThT): no inhibitory effect
Ac-Val-Gln-aIle-Ile-Asn-Lys-NH2 (Ac-VQ[aIle′]INK-NH2; SMILES CC[C@H](C)[C@H](NC(=O)[C@H]([C@@H](C)CC)N(N)C(=O)[C@H](CCC(N)=O)NC(=O)[C@@H](NC(C)=O)C(C)C)C(=O)N[C@@H](CC(N)=O)C(=O)N[C@@H](CCCCN)C(N)=O) [Compound 2] | short, immature rod-like fibrils | significantly reduce | –
Ac-aVal-Gln-aIle-Ile-Asn-Lys-NH2 (Ac-[aVal]Q[aIle′]INK-NH2; SMILES CC[C@H](C)[C@H](NC(=O)[C@H]([C@@H](C)CC)N(N)C(=O)[C@H](CCC(N)=O)NC(=O)[C@H](C(C)C)N(N)C(C)=O)C(=O)N[C@@H](CC(N)=O)C(=O)N[C@@H](CCCCN)C(N)=O) [Compound 4] | non-fibrillary amorphous aggregates; also recorded: non-fibrillary, amorphous aggregates | significantly reduce | seeding capacity of monomeric tauP301L pre-treated with inhibitor ([6]; 0.009 μM inhibitor): far weaker anti-seeding activity; seeding capacity of monomeric tauP301L pre-treated with inhibitor ([6]; 1.9 μM inhibitor): far weaker anti-seeding activity
Ac-Val-Gln-Ile-Val-Tyr-aLys-NH2 (Ac-VQIVY[N(NH2)Lys]-NH2; SMILES CC[C@H](C)[C@H](NC(=O)[C@H](CCC(N)=O)NC(=O)[C@@H](NC(C)=O)C(C)C)C(=O)N[C@H](C(=O)N[C@@H](Cc1ccc(O)cc1)C(=O)N(N)[C@@H](CCCCN)C(N)=O)C(C)C) [Compound 9] | did not inhibit Tau fibril formation | – | –
Ac-Val-Gln-aIle-Val-Tyr-Lys-NH2 (Ac-VQ[aIle′]VYK-NH2; SMILES CC[C@H](C)[C@@H](C(=O)N[C@H](C(=O)N[C@@H](Cc1ccc(O)cc1)C(=O)N[C@@H](CCCCN)C(N)=O)C(C)C)N(N)C(=O)[C@H](CCC(N)=O)NC(=O)[C@@H](NC(C)=O)C(C)C) [Compound 6] | short, immature rod-like fibrils | significantly reduce | –
